Molecules are shown by their SMILES. pIC50: −log10 of the molar value.

Test [1] concerns the target T1, 5-LO (Homo sapiens, UniProt P09917).
T1 construct: incubating a test compound with heparinised human blood; endogenous in cells; host or cells: blood cells in heparinised human blood
T1 sequence (P09917 1-674): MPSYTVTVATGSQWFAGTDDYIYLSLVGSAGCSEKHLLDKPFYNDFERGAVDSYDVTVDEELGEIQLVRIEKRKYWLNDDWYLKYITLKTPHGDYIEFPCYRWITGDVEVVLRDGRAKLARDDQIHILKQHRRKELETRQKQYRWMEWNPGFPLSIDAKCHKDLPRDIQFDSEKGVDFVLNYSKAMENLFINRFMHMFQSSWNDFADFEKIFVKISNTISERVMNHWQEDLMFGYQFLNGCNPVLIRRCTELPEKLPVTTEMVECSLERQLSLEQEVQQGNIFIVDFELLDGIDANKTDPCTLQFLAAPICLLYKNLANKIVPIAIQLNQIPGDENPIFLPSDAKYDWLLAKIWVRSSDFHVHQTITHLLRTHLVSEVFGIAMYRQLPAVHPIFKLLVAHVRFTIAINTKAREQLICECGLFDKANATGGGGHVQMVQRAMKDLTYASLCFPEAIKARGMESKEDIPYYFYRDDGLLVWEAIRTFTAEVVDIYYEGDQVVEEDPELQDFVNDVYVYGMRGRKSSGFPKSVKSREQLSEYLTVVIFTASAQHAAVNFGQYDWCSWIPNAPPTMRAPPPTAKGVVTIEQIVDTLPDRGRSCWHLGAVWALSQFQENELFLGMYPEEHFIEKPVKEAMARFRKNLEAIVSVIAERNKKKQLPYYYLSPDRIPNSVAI
In words: test b) in vitro heparinised human blood, A23187 challenge, LTB4 radioimmunoassay. The format is cell-based.
Description: b) An in vitro assay system involving incubating a test compound with heparinised human blood, prior to challenge with the calcium ionophore A23187 and then indirectly measuring the inhibitory effects on 5-LO by assaying the amount of LTB4 using the specific radioimmunoassay described by Carey and Forder (F. Carey and R. A. Forder, Brit. […] This test provides an indication of the effects of a test compound against 5-LO and also cyclooxygenase in the presence of blood cells and proteins. It permits the selectivity of the inhibitory effect on 5-LO or cyclooxygenase to be assessed.

For the next test, the target named is T2, cyclooxygenase (Homo sapiens, UniProt P23219).
T2 construct: incubating a test compound with heparinised human blood; endogenous in cells; host or cells: blood cells (platelets by own knowledge) in heparinised human blood
In words: test b) in vitro heparinised human blood, A23187 challenge, TxB2 radioimmunoassay. The class given is cell-based. The protocol:
As stated previously, the heterocyclic derivatives of the formula I are inhibitors of the enzyme 5-LO.
b) An in vitro assay system involving incubating a test compound with heparinised human blood, prior to challenge with the calcium ionophore A23187 and then indirectly measuring the inhibitory effects on 5-LO by assaying the amount of LTB4 using the specific radioimmunoassay described by Carey and Forder (F. Carey and R. A. Forder, Brit. J. Pharmacol. 1985, 84, 34P) which involves the use of a protein-LTB4 conjugate produced using the procedure of Young et alia (Prostaglandins, 1983, 26(4), 605-613). The effects of a test compound on the enzyme cyclooxygenase (which is involved in the alternative metabolic pathway for arachidonic acid and gives rise to prostaglandins, thromboxanes and related metabolites) may be measured at the same time using the specific radioimmunoassay for thromboxane B2 (TxB2) described by Carey and Forder (see above). This test provides an indication of the effects of a test compound against 5-LO and also cyclooxygenase in the presence of blood cells and proteins. It permits the selectivity of the inhibitory effect on 5-LO or cyclooxygenase to be assessed.

Test [2] has as its target T3, 5-LO (Rattus norvegicus, UniProt P12527).
T3 construct: blood collection, heparinisation, challenge with A23187 and radioimmunoassay of LTB4 and TxB2; endogenous in cells
T3 sequence (P12527 1-673): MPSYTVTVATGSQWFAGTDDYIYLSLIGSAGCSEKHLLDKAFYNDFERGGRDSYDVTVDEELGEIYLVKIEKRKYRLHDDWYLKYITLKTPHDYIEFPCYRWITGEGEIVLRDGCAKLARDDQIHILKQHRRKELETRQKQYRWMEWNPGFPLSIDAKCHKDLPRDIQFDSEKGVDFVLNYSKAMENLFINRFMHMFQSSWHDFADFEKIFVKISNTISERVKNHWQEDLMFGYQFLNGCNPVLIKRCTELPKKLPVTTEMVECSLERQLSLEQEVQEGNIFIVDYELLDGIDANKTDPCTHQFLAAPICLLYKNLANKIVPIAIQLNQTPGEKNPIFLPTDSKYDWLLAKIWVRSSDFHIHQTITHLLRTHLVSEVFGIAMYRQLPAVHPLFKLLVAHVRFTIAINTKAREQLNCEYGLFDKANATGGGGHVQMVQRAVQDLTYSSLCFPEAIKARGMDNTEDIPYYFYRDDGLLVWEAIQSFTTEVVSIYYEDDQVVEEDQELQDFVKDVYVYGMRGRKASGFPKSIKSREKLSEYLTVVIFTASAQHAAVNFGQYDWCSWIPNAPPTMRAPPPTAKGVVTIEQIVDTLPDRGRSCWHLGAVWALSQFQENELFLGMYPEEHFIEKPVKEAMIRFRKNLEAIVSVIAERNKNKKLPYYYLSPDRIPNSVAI
In words: test c) ex vivo assay, oral administration, blood collection, A23187 challenge, radioimmunoassay of LTB4. The format is in vivo. The protocol:
c) An ex vivo assay system, which is a variation of test b) above, involving administration of a test compound (usually orally as the suspension produced when a solution of the test compound in dimethylsulphoxide is added to carboxymethylcellulose), blood collection, heparinisation, challenge with A23187 and radioimmunoassay of LTB4 and TxB2. This test provides an indication of the bioavailability of a test compound as an inhibitor of 5-LO or cyclooxygenase.

T2 sequence (P23219 24-599): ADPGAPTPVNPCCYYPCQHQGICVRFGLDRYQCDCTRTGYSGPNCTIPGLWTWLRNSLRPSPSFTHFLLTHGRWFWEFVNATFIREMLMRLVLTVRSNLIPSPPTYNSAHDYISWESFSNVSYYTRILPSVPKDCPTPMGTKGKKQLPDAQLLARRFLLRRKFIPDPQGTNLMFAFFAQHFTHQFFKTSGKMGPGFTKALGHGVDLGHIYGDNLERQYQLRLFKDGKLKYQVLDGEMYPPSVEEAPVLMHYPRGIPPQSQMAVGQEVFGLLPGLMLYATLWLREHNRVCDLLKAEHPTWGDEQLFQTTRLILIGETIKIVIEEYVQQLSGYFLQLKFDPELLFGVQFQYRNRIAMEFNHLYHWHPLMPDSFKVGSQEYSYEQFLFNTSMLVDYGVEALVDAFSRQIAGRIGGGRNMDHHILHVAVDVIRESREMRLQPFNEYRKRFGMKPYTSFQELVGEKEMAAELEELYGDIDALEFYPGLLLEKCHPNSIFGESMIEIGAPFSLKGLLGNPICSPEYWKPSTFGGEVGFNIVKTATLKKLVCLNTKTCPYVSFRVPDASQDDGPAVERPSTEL

In the case of `COC1(c2cccc(OCc3ccc4ccccc4c3)c2)CCOCC1` [4-methoxy-4-[3-(naphth-2-ylmethoxy)phenyl]tetrahydropyran], the negative logarithm of the IC50 (pIC50) on 5-LO [1] is 7.00; at cyclooxygenase, below 4.40. The 50% effective dose (ED50) on 5-LO [2] is 5 mg/kg.

What is called pIC50 is the negative decadic logarithm of the IC50, by convention in mol/L. Read a low pIC50 as a high IC50. Usually ED50 stands for the midpoint of the dose-response relation. Lower therefore signals an effect at a small dose.
